pIC50: −log10 of the molar value. Calls of active or inactive are those of the source. No cut-off for these calls is given here.
test system: not listed separately; experiment: Cytotoxicity against mouse DLA cells after 48 hrs by MTT method; type: functional, cell-based; settings: not given

SMILES	pIC50
COc1ccc(-c2csc(NC(=O)COc3ccc(C(=O)c4ccc(C)cc4)cc3C)n2)cc1	4.76
COc1ccc(-c2csc(NC(=O)COc3ccc(C(=O)c4cccc(F)c4)cc3C)n2)cc1	4.55
COc1ccc(-c2csc(NC(=O)COc3ccc(C(=O)c4ccc(F)cc4)cc3C)n2)cc1	5.27
Cc1cc(C(=O)c2ccccc2)cc(C)c1OCC(=O)Nc1nc(-c2ccccc2)cs1	4.71
Cc1ccc(C(=O)c2ccc(OCC(=O)Nc3nc(-c4ccccc4)cs3)c(C)c2)cc1	4.58
COc1ccc(-c2csc(NC(=O)COc3c(C)cc(C(=O)c4ccccc4)cc3C)n2)cc1	4.40
Cc1cc(C(=O)c2ccccc2C)ccc1OCC(=O)Nc1nc(-c2ccccc2)cs1	4.64

test system: not listed separately; experiment: Cytotoxicity against mouse EAC cells after 48 hrs by LDH release assay; type: functional, cell-based; settings: Ehrlich

SMILES	pIC50
COc1ccc(-c2csc(NC(=O)COc3ccc(C(=O)c4ccc(C)cc4)cc3C)n2)cc1	4.68
COc1ccc(-c2csc(NC(=O)COc3ccc(C(=O)c4cccc(F)c4)cc3C)n2)cc1	4.51
COc1ccc(-c2csc(NC(=O)COc3ccc(C(=O)c4ccc(F)cc4)cc3C)n2)cc1	5.24
Cc1cc(C(=O)c2ccccc2)cc(C)c1OCC(=O)Nc1nc(-c2ccccc2)cs1	4.63
Cc1ccc(C(=O)c2ccc(OCC(=O)Nc3nc(-c4ccccc4)cs3)c(C)c2)cc1	4.52
COc1ccc(-c2csc(NC(=O)COc3c(C)cc(C(=O)c4ccccc4)cc3C)n2)cc1	4.38
Cc1cc(C(=O)c2ccccc2C)ccc1OCC(=O)Nc1nc(-c2ccccc2)cs1	4.58

test system: Ehrlich; experiment: Antitumor activity against mouse EAC cells allografted in mouse assessed as decrease in reduction in cell count at 50 mg/kg, ip as 3 doses on day 4,6 and 8 after tumor onset measured on day 10; type: functional, organism-based; parameters: dose 50 mg/kg; settings: not given

SMILES	Activity
COc1ccc(-c2csc(NC(=O)COc3ccc(C(=O)c4ccc(F)cc4)cc3C)n2)cc1	Dose-dependent effect

test system: not listed separately; experiment: Cytotoxicity against mouse EAC cells after 48 hrs by trypan blue dye exclusion method; type: functional, cell-based; settings: Ehrlich

SMILES	pIC50
COc1ccc(-c2csc(NC(=O)COc3ccc(C(=O)c4ccc(C)cc4)cc3C)n2)cc1	4.71
COc1ccc(-c2csc(NC(=O)COc3ccc(C(=O)c4cccc(F)c4)cc3C)n2)cc1	4.53
COc1ccc(-c2csc(NC(=O)COc3ccc(C(=O)c4ccc(F)cc4)cc3C)n2)cc1	5.28
Cc1cc(C(=O)c2ccccc2)cc(C)c1OCC(=O)Nc1nc(-c2ccccc2)cs1	4.66
Cc1ccc(C(=O)c2ccc(OCC(=O)Nc3nc(-c4ccccc4)cs3)c(C)c2)cc1	4.55
COc1ccc(-c2csc(NC(=O)COc3c(C)cc(C(=O)c4ccccc4)cc3C)n2)cc1	4.39
Cc1cc(C(=O)c2ccccc2C)ccc1OCC(=O)Nc1nc(-c2ccccc2)cs1	4.61

test system: Mus musculus; experiment: Toxicity in Swiss albino mouse assessed as change in WBC at 50 mg/kg, ip consecutively for 10 days (reference value: […]); type: organism-based; parameters: dose 50 mg/kg, route intraperitoneal; settings: in vivo, 240 h

SMILES	Activity [×10⁶ /uL]
COc1ccc(-c2csc(NC(=O)COc3ccc(C(=O)c4ccc(F)cc4)cc3C)n2)cc1	3.89

test system: Ehrlich; experiment: Reduction in VEGF-A protein secretion in culture media of mouse EAC cells by ELISA; type: functional, cell-based; settings: not given

SMILES	Activity
COc1ccc(-c2csc(NC(=O)COc3ccc(C(=O)c4ccc(F)cc4)cc3C)n2)cc1	Dose-dependent effect

test system: not listed separately; experiment: Antitumor activity against mouse EAC cells allografted in mouse assessed as reduction in VEGF-A protein secretion in tumor cells at 50 mg/kg, ip as 3 doses on day 4,6 and 8 after tumor onset by ELISA relative to control; type: functional, Ehrlich; settings: route intraperitoneal

SMILES	fold change (FC)
COc1ccc(-c2csc(NC(=O)COc3ccc(C(=O)c4ccc(F)cc4)cc3C)n2)cc1	5

test system: Mus musculus; experiment: Toxicity in Swiss albino mouse assessed as change in alkaline phosphatase level at 50 mg/kg, ip consecutively for 10 days (reference value: 124.98 +/- 1.2 IU/L); type: organism-based; parameters: dose 50 mg/kg, route intraperitoneal; settings: in vivo, 240 h

SMILES	Activity [IU/L]
COc1ccc(-c2csc(NC(=O)COc3ccc(C(=O)c4ccc(F)cc4)cc3C)n2)cc1	129

test system: Ehrlich; experiment: Antitumor activity against mouse EAC cells allografted in mouse assessed as decrease in ascites fluid secretion at 50 mg/kg, ip as 3 doses on day 4,6 and 8 after tumor onset measured on day 10; type: functional, organism-based; parameters: dose 50 mg/kg; settings: not given

SMILES	Activity
COc1ccc(-c2csc(NC(=O)COc3ccc(C(=O)c4ccc(F)cc4)cc3C)n2)cc1	Dose-dependent effect

test system: Mus musculus; experiment: Toxicity in Swiss albino mouse assessed as change in urea level at 50 mg/kg, ip consecutively for 10 days (reference value: 51 +/- 2.6 mg/dl); type: organism-based; parameters: dose 50 mg/kg, route intraperitoneal; settings: in vivo, 240 h

SMILES	Activity [mg/dL]
COc1ccc(-c2csc(NC(=O)COc3ccc(C(=O)c4ccc(F)cc4)cc3C)n2)cc1	48

test system: Ehrlich; experiment: Antitumor activity against mouse EAC cells allografted in mouse assessed as reduction in VEGF-A mRNA expression in tumor cells at 50 mg/kg, ip as 3 doses on day 4,6 and 8 after tumor onset by RT-PCR analysis; type: functional, organism-based; parameters: dose 50 mg/kg; settings: not given

SMILES	Activity
COc1ccc(-c2csc(NC(=O)COc3ccc(C(=O)c4ccc(F)cc4)cc3C)n2)cc1	Active

test system: Ehrlich; experiment: Antitumor activity against mouse EAC cells allografted in mouse assessed as zone of avascularization in peritoneum at 50 mg/kg, ip as 3 doses on day 4,6 and 8 after tumor onset measured on day 10; type: functional, organism-based; parameters: dose 50 mg/kg; settings: not given

SMILES	Activity
COc1ccc(-c2csc(NC(=O)COc3ccc(C(=O)c4ccc(F)cc4)cc3C)n2)cc1	Active

test system: not listed separately; experiment: Cytotoxicity against mouse EAC cells after 48 hrs by MTT method; type: functional, cell-based; settings: Ehrlich

SMILES	pIC50
COc1ccc(-c2csc(NC(=O)COc3ccc(C(=O)c4ccc(C)cc4)cc3C)n2)cc1	4.68
COc1ccc(-c2csc(NC(=O)COc3ccc(C(=O)c4cccc(F)c4)cc3C)n2)cc1	4.51
COc1ccc(-c2csc(NC(=O)COc3ccc(C(=O)c4ccc(F)cc4)cc3C)n2)cc1	5.27
Cc1cc(C(=O)c2ccccc2)cc(C)c1OCC(=O)Nc1nc(-c2ccccc2)cs1	4.64
Cc1ccc(C(=O)c2ccc(OCC(=O)Nc3nc(-c4ccccc4)cs3)c(C)c2)cc1	4.52
COc1ccc(-c2csc(NC(=O)COc3c(C)cc(C(=O)c4ccccc4)cc3C)n2)cc1	4.39
Cc1cc(C(=O)c2ccccc2C)ccc1OCC(=O)Nc1nc(-c2ccccc2)cs1	4.59

test system: Ehrlich; experiment: Antitumor activity against mouse EAC cells allografted in mouse assessed as reduction in VEGF-A protein expression in tumor cells at 50 mg/kg, ip as 3 doses on day 4,6 and 8 after tumor onset by immunoblot method relative to control; type: functional, organism-based; parameters: dose 50 mg/kg; settings: not given

SMILES	Activity
COc1ccc(-c2csc(NC(=O)COc3ccc(C(=O)c4ccc(F)cc4)cc3C)n2)cc1	Active

test system: Mus musculus; experiment: Toxicity in Swiss albino mouse assessed as change in RBC at 50 mg/kg, ip consecutively for 10 days (reference value: 4.75 +/- 2.1 x 10^6 /uL); type: organism-based; parameters: dose 50 mg/kg, route intraperitoneal; settings: in vivo, 240 h

SMILES	Activity [×10⁶ /uL]
COc1ccc(-c2csc(NC(=O)COc3ccc(C(=O)c4ccc(F)cc4)cc3C)n2)cc1	5.13

test system: Ehrlich; experiment: Antitumor activity against mouse EAC cells allografted in mouse assessed as decrease in reduction in tumor volume at 50 mg/kg, ip as 3 doses on day 4,6 and 8 after tumor onset measured on day 10; type: functional, organism-based; parameters: dose 50 mg/kg; settings: not given

SMILES	Activity
COc1ccc(-c2csc(NC(=O)COc3ccc(C(=O)c4ccc(F)cc4)cc3C)n2)cc1	Dose-dependent effect

test system: not listed separately; experiment: Antitumor activity against mouse EAC cells allografted in mouse assessed as increase in lifespan at 50 mg/kg, ip as 3 doses on day 4,6 and 8 after tumor onset measured on day 10 (reference value: 10 days); type: functional, Ehrlich; settings: route intraperitoneal

SMILES	Survival [days]
COc1ccc(-c2csc(NC(=O)COc3ccc(C(=O)c4ccc(F)cc4)cc3C)n2)cc1	34

test system: Mus musculus; experiment: Toxicity in Swiss albino mouse assessed as change in creatinine level at 50 mg/kg, ip consecutively for 10 days (reference value: 0.46 +/- 1.8 mg/dl); type: organism-based; parameters: dose 50 mg/kg, route intraperitoneal; settings: in vivo, 240 h

SMILES	Activity [mg/dL]
COc1ccc(-c2csc(NC(=O)COc3ccc(C(=O)c4ccc(F)cc4)cc3C)n2)cc1	0.44

test system: not listed separately; experiment: Cytotoxicity against mouse DLA cells after 48 hrs by trypan blue dye exclusion method; type: functional, cell-based; settings: not given

SMILES	pIC50
COc1ccc(-c2csc(NC(=O)COc3ccc(C(=O)c4ccc(C)cc4)cc3C)n2)cc1	4.80
COc1ccc(-c2csc(NC(=O)COc3ccc(C(=O)c4cccc(F)c4)cc3C)n2)cc1	4.56
COc1ccc(-c2csc(NC(=O)COc3ccc(C(=O)c4ccc(F)cc4)cc3C)n2)cc1	5.30
Cc1cc(C(=O)c2ccccc2)cc(C)c1OCC(=O)Nc1nc(-c2ccccc2)cs1	4.72
Cc1ccc(C(=O)c2ccc(OCC(=O)Nc3nc(-c4ccccc4)cs3)c(C)c2)cc1	4.60
COc1ccc(-c2csc(NC(=O)COc3c(C)cc(C(=O)c4ccccc4)cc3C)n2)cc1	4.42
Cc1cc(C(=O)c2ccccc2C)ccc1OCC(=O)Nc1nc(-c2ccccc2)cs1	4.65

test system: not listed separately; experiment: Cytotoxicity against mouse DLA cells after 48 hrs by LDH release assay; type: functional, cell-based; settings: not given

SMILES	pIC50
COc1ccc(-c2csc(NC(=O)COc3ccc(C(=O)c4ccc(C)cc4)cc3C)n2)cc1	4.73
COc1ccc(-c2csc(NC(=O)COc3ccc(C(=O)c4cccc(F)c4)cc3C)n2)cc1	4.52
COc1ccc(-c2csc(NC(=O)COc3ccc(C(=O)c4ccc(F)cc4)cc3C)n2)cc1	5.26
Cc1cc(C(=O)c2ccccc2)cc(C)c1OCC(=O)Nc1nc(-c2ccccc2)cs1	4.70
Cc1ccc(C(=O)c2ccc(OCC(=O)Nc3nc(-c4ccccc4)cs3)c(C)c2)cc1	4.57
COc1ccc(-c2csc(NC(=O)COc3c(C)cc(C(=O)c4ccccc4)cc3C)n2)cc1	4.40
Cc1cc(C(=O)c2ccccc2C)ccc1OCC(=O)Nc1nc(-c2ccccc2)cs1	4.63
